# Measured values: patent publication US5547962A, “5-amino-8-methyl-7-pyrrolidinylquinoline-3-carboxylic acid derivative” (priority 1993, dated 1996)
# Structures can show the parent of a compound that is named as a salt. Where two headings read alike, the source gives them in different places.
# How the values were obtained:
# [1] = system: male ICR mice; assay: Convulsions, intraperitoneal (i.p.) administration with fenbufen; settings: for Convulsions i.p.: number of animals with convulsions/number of animals tested: 100 mg/kg i.p., fenbufen 100 mg/kg orally
# Method: Thirty minutes later, they were injected intraperitoneally with the test compounds at a dose of 100 mg/kg. Thereafter, the onset of convulsions was recorded.
# [2] = system: Male Hartley guinea pigs; format: in vivo; settings: 10 mg/kg i.v.; for phototoxicity, in words: UVA; for Phototoxicity: number of animals with erythemas/number of animals tested: UVA 90 minutes, 24 h after irradiation
# Method: Male Hartley guinea pigs were intravenously administered test compounds at a dose of 10 mg/kg, and immediately exposed to UVA on their backs for 90 minutes.
# [3] = system: CHL cells; assay: Chromosomal aberration test with a Chinese hamster lung cell line (CHL); format: cell-based; settings: for Chromosomal aberration: CHL cells
# Method: The chromosomal aberration test was conducted with a Chinese hamster lung cell line (CHL). 2-(2-Furyl)-3-(5-nitro-2-furyl)acrylamide was used as a positive control. Cells treated with the test compounds were cultured for 6 h at 37° C. in 5% CO2 -humidified air. Following the 6 h treatment the cells were washed. Fresh medium was added to the washed cells and they were cultured for a further 18 h. Colcemide was added to the cultures 2 h before the fixation of chromosome preparation, in order to collect metaphase cells.
# [4] = system: Male Wistar rats; assay: Convulsions, intracerebroventricular (i.c.v.) administration with fenbufen; format: in vivo, rat; settings: 20 μg i.c.v.
# Method: Male Wistar rats weighing 180-220 g were anesthetized with sodium pentobarbital (45 mg/kg, i.p.) and fixed in a stereotaxic apparatus. For the intracerebroventricular injection, a 0.6 mm diameter stainless steel guide cannula was implanted in each rat, being positioned 1.5 mm above the left lateral cerebroventricle (A: 6.2, R: 1.0, H: +1.0), according to the atlas of De Groot (1959). The guide cannula was fixed with dental cement on the skull and it was closed with a 0.3 mm diameter stainless steel stylet. To prevent infection, 10,000 units of potassium penicillin G were injected intramuscularly. The rats were allowed a few days to recover from the surgery.
# For the measurement of convulsions, 30 min after intraperitoneal injection of 50 mg/kg of fenbufen, 20 μg of the test compounds was given through a 0.3 mm diameter of stainless steel cannula with a polyethylene catheter, which was 1.5 mm longer than the guide cannula in order to be inserted into the […] cerebroventricle (H: +1.0). […] The position of the intracerebroventricular cannula was confirmed by the injection of 10 μl of 1% evans blue followed by sectioning of the brain of each rat which had been used in the experiment.
smiles,measurement,setting,value
"Cl.Nc1c(F)c(N2C[C@@H](N)C3(CC3)C2)cc2c1c(=O)c(C(=O)O)cn2C1CC1 [Reference Compound B, 5-amino-7-((S)-7-amino-5-azaspiro[2.4]hept-5-yl)-1-cyclopropyl-6-fluoro-1,4-dihydro-4-oxoquinoline-3-carboxylic acid hydrochloride]",Convulsions i.p.: number of animals with convulsions/number of animals tested,[1],0/6
same,"phototoxicity, in words",[2],observed
same,Phototoxicity: number of animals with erythemas/number of animals tested,[2],3/5
same,Chromosomal aberration,"[3]; Table 1, 3 μg/ml",+ (10-20%)
same,Chromosomal aberration,"[3]; Table 2, 3 μg/ml",+ (10-20%)
same,Chromosomal aberration,"[3]; Table 3, 3 μg/ml",+ (10-20%)
same,Chromosomal aberration,"[3]; Table 7, 3 μg/ml",+ (10-20%)
same,"toxicity (chromosomal aberration), in words",[3]; comparison to Tables 7 and 8,observed
same,death of CHL cells,[3]; treatment with 100 μg/ml,all cells died
"N[C@H]1CCN(c2cc3c(cc2F)c(=O)c(C(=O)O)cn3C2CC2)C1 [Reference Compound D, 7-((S)-3-amino-1-pyrrolidinyl)-1-cyclopropyl-6-fluoro-1,4-dihydro-4-oxoquinoline-3-carboxylic acid]",Chromosomal aberration,"[3]; Table 1, 100 μg/ml",- (<10%)
same,Chromosomal aberration,"[3]; Table 2, 100 μg/ml",- (<10%)
"Nc1c(F)c(N2CC[C@H](N)C2)cc2c1c(=O)c(C(=O)O)cn2C1CC1 [Reference Compound E, 5-amino-7-((S)-3-amino-1-pyrrolidinyl)-1-cyclopropyl-6-fluoro-1,4-dihydro-4-oxoquinoline-3-carboxylic acid]","phototoxicity, in words",[2],no phototoxicity
same,death of guinea pigs,[2]; phototoxicity test,death of two guinea pigs out of five
same,"toxicity (chromosomal aberration), in words",[3],observed
"Cc1c(N2CC[C@H](N)C2)c(F)cc2c(=O)c(C(=O)O)cn(C3CC3)c12 [Reference Compound F, 7-((S)-3-amino-1-pyrrolidinyl)-1-cyclopropyl-6-fluoro-1,4-dihydro-8-methyl-4-oxoquinoline-3-carboxylic acid]","phototoxicity, in words",[2],observed
same,Phototoxicity: number of animals with erythemas/number of animals tested,[2],4/5
same,"toxicity (chromosomal aberration), in words",[3],observed
"Cc1c(N2CCNCC2)c(F)c(N)c2c(=O)c(C(=O)O)cn(C3CC3)c12 [Reference Compound I, 5-amino-1-cyclopropyl-6-fluoro-1,4-dihydro-8-methyl-4-oxo-7-piperazinylquinoline-3-carboxylic acid hydrochloride]",Convulsions i.p.: number of animals with convulsions/number of animals tested,[1],0/6
same,symptom of sedation,[1]; i.p. convulsion test,All of mice used for the test had a symptom of sedation
same,Phototoxicity: number of animals with erythemas/number of animals tested,[2],0/5
same,"convulsions i.c.v., in words",[4]; fenbufen,observed
same,Convulsions i.c.v.: number of animals with convulsions/number of animals tested,[4]; fenbufen 50 mg/kg i.p.,3/3
